From ChEMBL document CHEMBL1201862, “PubChem BioAssay data set” (2004)
Several values for one entry are separate records, joined by “and”; a condition that tells them apart may be missing. Equal values may be shown once.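 Tested at 5 concentrations; 48 h exposure; 96-well plates; endpoints linearly interpolated, else capped at highest concentration. GI50: concentration for 50% inhibition of growth.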 Activity calls are given as the source filed them. No stated cut-off is given here; in the data, active = GI50 up to about 1.1 µM and inactive = higher.

Tests used:
Test in all cases: NCI tumour cell line growth inhibition, 48 h
PC-3 = tested on: PC-3
MDA-MB-435 = tested on: MDA-MB-435
OVCAR-5 = tested on: OVCAR-5
BT-549 = tested on: BT-549
DU-145 = tested on: DU-145
MDA-MB-231 = tested on: MDA-MB-231
HOP-92 = tested on: HOP-92
RPMI-8226 = tested on: RPMI-8226
SNB-75 = tested on: SNB-75
MCF7 = tested on: MCF7
HOP-62 = tested on: HOP-62
EKVX = tested on: EKVX
Hs-578T = tested on: Hs-578T
786-0 = tested on: 786-0
SF-295 = tested on: SF-295
MDA-N = tested on: MDA-N
T47D = tested on: T47D
HL-60 = tested on: HL-60
OVCAR-8 = tested on: OVCAR-8
RXF 631 = tested on: RXF 631

| Structure (SMILES) | GI50 (PC-3) | GI50 (MDA-MB-435) | GI50 (OVCAR-5) | GI50 (BT-549) | GI50 (DU-145) | GI50 (MDA-MB-231) | GI50 (HOP-92) | GI50 (RPMI-8226) | GI50 (SNB-75) | GI50 (MCF7) | GI50 (HOP-62) | GI50 (EKVX) | GI50 (Hs-578T) | GI50 (786-0) | GI50 (SF-295) | GI50 (MDA-N) | GI50 (T47D) | GI50 (HL-60) | GI50 (OVCAR-8) | GI50 (RXF 631) |
| --- | --- | --- | --- | --- | --- | --- | --- | --- | --- | --- | --- | --- | --- | --- | --- | --- | --- | --- | --- | --- |
| OC(c1cc(C(F)(F)F)nc2c(Cl)cc(Cl)cc12)C1CCCCN1 (centres undefined) | > 22.5 µM (inactive) | 5.61 µM (inactive) | > 35 µM (inactive) | 14.5 µM (inactive) | 7.01 µM (inactive) | > 22.1 µM (inactive) | 7.26 µM (inactive) | 1.95 µM (inactive) | 11.8 µM (inactive) | 12.5 µM (inactive) | 3.77 µM (inactive) | > 100 µM (inactive) | > 22.4 µM (inactive) | 13.3 µM (inactive) | 12.2 µM (inactive) | 77.1 µM (inactive) | 5.65 µM (inactive) | 5.82 µM (inactive) | 13.2 µM (inactive) | – |
| COC(=O)[C@@H]1O[C@]12[C@@H](CO[Si](C)(C)C(C)(C)C)O[C@@H](n1cc(C)c(=O)[nH]c1=O)[C@@H]2O[Si](C)(C)C(C)(C)C | 20.4 µM (inactive) | 19.5 µM (inactive) | 20.4 µM (inactive) | 15.9 µM (inactive) | 18.2 µM (inactive) | 19.9 µM (inactive) | – | – | 23.1 µM (inactive) | – | 26.2 µM (inactive) | 23.5 µM (inactive) | 19.1 µM (inactive) | – | 21.2 µM (inactive) | 12.9 µM (inactive) | 6.31 µM (inactive) | 3.12 µM (inactive) | 15.3 µM (inactive) | – |
| Nc1nc(N)c2cc(Sc3ccc4nc(N)nc(N)c4c3)ccc2n1 | – | 0.0522 µM (active) | > 100 µM (inactive) | > 100 µM (inactive) | 1.13 µM (inactive) | > 100 µM (inactive) | > 100 µM (inactive) | 4.89 µM (inactive) | > 100 µM (inactive) | – | > 100 µM (inactive) | > 100 µM (inactive) | > 100 µM (inactive) | – | – | > 100 µM (inactive) | > 44.2 µM (inactive) | 0.0533 µM (active) | 0.181 µM (active) | – |
| C=C1c2c(cc3c(c2O)c(=O)c2ccccc2n3C)OC1(C)C | – | – | – | – | – | – | 15 µM (inactive) | > 100 µM (inactive) | 16.9 µM (inactive) | – | – | > 100 µM (inactive) | – | – | 22.5 µM (inactive) | – | – | > 100 µM (inactive) | 52.6 µM (inactive) | > 100 µM (inactive) |
| O=C1CCCC(=O)N1CCc1c[nH]c2ccccc12 | – | – | > 100 µM (inactive) | – | – | – | > 100 µM (inactive) | – | > 100 µM (inactive) | – | > 100 µM (inactive) | > 100 µM (inactive) | – | > 100 µM (inactive) | > 100 µM (inactive) | – | – | > 100 µM (inactive) | > 100 µM (inactive) | > 100 µM (inactive) |
| CC1(O)OC(=O)C2=C1CCC1C2CCC2(C)C(O)CCC12 (centres undefined) | – | > 100 µM (inactive) | > 100 µM (inactive) | > 100 µM (inactive) | > 100 µM (inactive) | > 100 µM (inactive) | > 100 µM (inactive) | > 100 µM (inactive) | – | > 100 µM (inactive) | > 100 µM (inactive) | > 100 µM (inactive) | > 100 µM (inactive) | > 100 µM (inactive) | > 100 µM (inactive) | > 100 µM (inactive) | > 100 µM (inactive) | > 100 µM (inactive) | > 100 µM (inactive) | – |
| CC(=O)O[C@@H]1[C@H]2[C@@H](OC(=O)c3ccccc3)[C@@H](C)C[C@]2(O)[C@H](OC(C)=O)[C@@]2(C)[C@@H]3C[C@@](C)(OC(C)=O)C[C@@H](OC(C)=O)[C@@]3(OC(C)=O)C[C@@]12C | > 10 µM (inactive) | > 10 µM (inactive) | > 10 µM (inactive) | > 10 µM (inactive) | > 10 µM (inactive) | > 10 µM (inactive) | > 10 µM (inactive) | – | > 10 µM (inactive) | > 10 µM (inactive) | > 10 µM (inactive) | > 10 µM (inactive) | > 10 µM (inactive) | > 10 µM (inactive) | > 10 µM (inactive) | > 10 µM (inactive) | > 10 µM (inactive) | > 10 µM (inactive) | > 10 µM (inactive) | – |
| COc1cc(C2C(C(=O)O)=C(COC(C)=O)Oc3cc4c(cc32)OCO4)cc(OC)c1OC (centres undefined) | – | – | > 100 µM (inactive) | – | – | – | – | > 100 µM (inactive) | 41 µM (inactive) | – | > 100 µM (inactive) | > 100 µM (inactive) | – | – | > 100 µM (inactive) | – | – | > 100 µM (inactive) | > 100 µM (inactive) | > 100 µM (inactive) |
| c1c2c(cc(-n3nnc4c3CCCCCC4)c1-n1nnc3c1CCCCCC3)CCCCCC2 | – | – | 15.8 µM (inactive) | – | – | – | 3.28 µM (inactive) | – | 12.7 µM (inactive) | – | 17.8 µM (inactive) | 10.7 µM (inactive) | – | – | 12 µM (inactive) | – | – | 3.8 µM (inactive) | 12.7 µM (inactive) | 10.1 µM (inactive) |
| O=C1CC(=O)c2c(O)cc(O)c(c2O)-c2c(ccc(O)c2O)C2=CC(=O)c3c(O)cc(O)c(c3O2)-c2c1ccc(O)c2O.O=C1CC2(O)Oc3c1c(O)cc(O)c3-c1c(ccc(O)c1O)-c1cc(=O)c3c(O)cc(O)c(c3o1)-c1c2ccc(O)c1O | > 50 µM (inactive) | > 50 µM (inactive) | > 50 µM (inactive) | > 50 µM (inactive) | > 50 µM (inactive) | > 50 µM (inactive) | > 50 µM (inactive) | – | > 50 µM (inactive) | > 50 µM (inactive) | > 50 µM (inactive) | > 50 µM (inactive) | > 50 µM (inactive) | – | > 50 µM (inactive) | > 50 µM (inactive) | > 50 µM (inactive) | > 50 µM (inactive) | > 50 µM (inactive) | – |
| COc1ccc2c3c1OC1C(F)C=CC4(O)C(C2)NCCC314 (centres undefined) | 2.07 µM (inactive) | 1.52 µM (inactive) | 3.2 µM (inactive) | 1.93 µM (inactive) | 2.82 µM (inactive) | 3.27 µM (inactive) | 2.87 µM (inactive) | 0.834 µM (active) | 2.06 µM (inactive) | 1.69 µM (inactive) | 2.11 µM (inactive) | 2.49 µM (inactive) | 2.62 µM (inactive) | 1.2 µM (inactive) | 9.18 µM (inactive) | 2.42 µM (inactive) | 0.753 µM (active) | – | 1.94 µM (inactive) | – |
| CC(C)(C)N1C(C(=O)c2ccccc2)C1c1ccccc1 (centres undefined) | – | – | – | – | – | – | > 100 µM (inactive) | > 100 µM (inactive) | > 100 µM (inactive) | – | > 100 µM (inactive) | > 100 µM (inactive) | – | – | – | – | – | > 100 µM (inactive) | > 100 µM (inactive) | > 100 µM (inactive) |
| COC(=O)c1cc2c(cc1CC(Cc1ccc3c(c1)CCC3)C(=O)OC)CCC2 (centres undefined) | 16.6 µM (inactive) | 31 µM (inactive) | 60.7 µM (inactive) | > 100 µM (inactive) | 83.8 µM (inactive) | 70.6 µM (inactive) | 21 µM (inactive) | 16.5 µM (inactive) | 22.9 µM (inactive) | 24.8 µM (inactive) | > 100 µM (inactive) | 27 µM (inactive) | 66.2 µM (inactive) | 51.4 µM (inactive) | 84.5 µM (inactive) | 38 µM (inactive) | 26.8 µM (inactive) | 8.61 µM (inactive) | > 100 µM (inactive) | – |
| N#C/C(N)=C(C#N)/N=C/NCc1ccccc1 | > 100 µM (inactive) | > 100 µM (inactive) | > 100 µM (inactive) | > 100 µM (inactive) | > 100 µM (inactive) | > 100 µM (inactive) | – | > 100 µM (inactive) | > 100 µM (inactive) | > 100 µM (inactive) | > 100 µM (inactive) | > 100 µM (inactive) | > 100 µM (inactive) | > 100 µM (inactive) | > 100 µM (inactive) | > 100 µM (inactive) | 75.9 µM (inactive) | > 100 µM (inactive) | > 100 µM (inactive) | – |
| O=C(O)C1(C(O)c2ccccc2)SCCCS1 (centres undefined) | > 10 µM (inactive) | > 10 µM (inactive) | > 10 µM (inactive) | > 10 µM (inactive) | > 10 µM (inactive) | > 10 µM (inactive) | > 10 µM (inactive) | – | > 10 µM (inactive) | > 10 µM (inactive) | > 10 µM (inactive) | > 10 µM (inactive) | > 10 µM (inactive) | > 10 µM (inactive) | > 10 µM (inactive) | > 10 µM (inactive) | > 10 µM (inactive) | > 10 µM (inactive) | > 10 µM (inactive) | – |
| O=C(O)c1cnc2c(ccc3ncc(C(=O)O)c(O)c32)c1O | > 100 µM (inactive) | > 100 µM (inactive) | > 100 µM (inactive) | > 100 µM (inactive) | > 100 µM (inactive) | > 100 µM (inactive) | > 100 µM (inactive) | > 100 µM (inactive) | 34.8 µM (inactive) | > 100 µM (inactive) | > 100 µM (inactive) | > 100 µM (inactive) | > 100 µM (inactive) | > 100 µM (inactive) | > 100 µM (inactive) | > 100 µM (inactive) | > 100 µM (inactive) | > 100 µM (inactive) | > 100 µM (inactive) | – |
| COc1cc(NC(C)CCCN)c2ncccc2c1 (centres undefined) [PRIMAQUINE PHOSPHATE] | 33.6 µM (inactive) | 38 µM (inactive) | > 91 µM (inactive) and > 83.4 µM (inactive) | 41.1 µM (inactive) | 99.1 µM (inactive) | 43.7 µM (inactive) | – | 42.8 µM (inactive) and 22.6 µM (inactive) | 47.2 µM (inactive) and 24.1 µM (inactive) | 16.4 µM (inactive) | – | > 66.1 µM (inactive) and 77.3 µM (inactive) | 39.4 µM (inactive) | – | 98.2 µM (inactive) and 52.4 µM (inactive) | 29.6 µM (inactive) | 16 µM (inactive) | 8.17 µM (inactive) and 10.4 µM (inactive) | 70.6 µM (inactive) and 63.1 µM (inactive) | > 91.2 µM (inactive) |
